Test results taken from patent EP4782445A1, “CDK KINASE INHIBITOR AND USE THEREOF” (Abbisko Therapeutics Co., Ltd., priority 2023, dated 2025).

Assays:
CDK4/cyclin D3 = molecular target: T1, CDK4/cyclin D3 (Homo sapiens, UniProt P11802); test: In vitro biochemical kinase activity assay for CDK4/cyclin D3 (HTRF)
T1 construct: purchased Carna
Method: II. In Vitro Biochemical Kinase Activity Assay for CDK4/Cyclin D3
The inhibitory effects of the compounds of the present invention on CDK4/cyclin D3 kinase activity were determined using an HTRF assay. The experimental process was as follows: • 1. The kinase reaction was carried out in a 384-well plate. 4.9 nM CDK4/cyclin D3 (Carna), 1 mM (or 80 µM) ATP, and 0.3 µM biotin-labeled substrate protein Rb-biotin (Cisbio) were incubated at 30°C for 90 min in a buffer system composed of 50 mM MgCl2, 1 mM DTT, and basal kinase buffer (Cisbio). • 2. The detection solution (Cisbio, containing reagents that specifically recognize phosphorylated Rb and Rb-biotin proteins, respectively) was added. The plate was then sealed with a film (to protect from light and volatilization) and incubated at 25°C for 60 min. • 3. The plate was transferred to an Envision plate reader to detect FRET signals. (The 665/615 ratio was calculated by reading the emission at 665 nm and 615 nM, respectively.) • 4. The IC50 values were determined by analyzing the inhibition at varying compound concentrations using Model 205 in the XLfit software.

CDK6/cyclin D3 = molecular target: T2, CDK6/cyclin D3 (Homo sapiens, UniProt Q00534); test: In vitro biochemical kinase activity assay for CDK6/cyclin D3 (HTRF)
T2 construct: purchased Carna
Method: III. In Vitro Biochemical Kinase Activity Assay for CDK6/Cyclin D3
The inhibitory effects of the compounds of the present invention on CDK6/cyclin D3 kinase activity were determined using an HTRF assay. The experimental process was as follows: 1. The kinase reaction was carried out in a 384-well plate. 0.02 nM CDK6/cyclin D3 (Carna), 1 mM (or 100 µM) ATP, and 0.3 µM biotin-labeled substrate protein Rb-biotin (Cisbio) were incubated at 30°C for 60 min in a buffer system composed of 5 mM MgCl2, 1 mM DTT, and basal kinase buffer (Cisbio). 2. The detection solution (Cisbio, containing reagents that specifically recognize phosphorylated Rb and Rb-biotin proteins, respectively) was added. The plate was then sealed with a film (to protect from light and volatilization) and incubated at 25°C for 60 min. 3. The plate was transferred to an Envision plate reader to detect FRET signals. (The 665/615 ratio was calculated by reading the emission at 665 nm and 615 nM, respectively.) 4. The IC50 values were determined by analyzing the inhibition at varying compound concentrations using Model 205 in the XLfit software.

[1] = unmarked data: 80 µM ATP in Step 1
[2] = unmarked data: 100 µM ATP in Step 1
[3] = data marked with *: 1 mM ATP in Step 1

T2 sequence (Q00534 whole entry): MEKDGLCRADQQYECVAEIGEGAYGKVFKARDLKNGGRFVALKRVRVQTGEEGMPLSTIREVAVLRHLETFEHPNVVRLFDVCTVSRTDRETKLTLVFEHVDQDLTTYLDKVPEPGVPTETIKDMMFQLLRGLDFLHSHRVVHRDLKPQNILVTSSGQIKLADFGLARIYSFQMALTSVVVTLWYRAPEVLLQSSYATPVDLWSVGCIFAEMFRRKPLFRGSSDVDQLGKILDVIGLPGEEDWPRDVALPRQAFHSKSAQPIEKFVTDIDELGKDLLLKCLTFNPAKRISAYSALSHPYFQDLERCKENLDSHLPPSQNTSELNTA
T2 sequence (P30281 whole entry partner): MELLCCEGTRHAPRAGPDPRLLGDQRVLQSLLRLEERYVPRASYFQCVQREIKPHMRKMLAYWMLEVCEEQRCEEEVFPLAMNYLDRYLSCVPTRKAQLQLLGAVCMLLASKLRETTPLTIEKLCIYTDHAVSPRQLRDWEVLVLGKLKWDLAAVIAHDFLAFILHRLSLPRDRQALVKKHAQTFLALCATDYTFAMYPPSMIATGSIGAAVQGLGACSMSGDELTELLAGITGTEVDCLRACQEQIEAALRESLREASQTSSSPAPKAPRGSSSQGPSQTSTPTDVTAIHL
T1 sequence (P11802 whole entry): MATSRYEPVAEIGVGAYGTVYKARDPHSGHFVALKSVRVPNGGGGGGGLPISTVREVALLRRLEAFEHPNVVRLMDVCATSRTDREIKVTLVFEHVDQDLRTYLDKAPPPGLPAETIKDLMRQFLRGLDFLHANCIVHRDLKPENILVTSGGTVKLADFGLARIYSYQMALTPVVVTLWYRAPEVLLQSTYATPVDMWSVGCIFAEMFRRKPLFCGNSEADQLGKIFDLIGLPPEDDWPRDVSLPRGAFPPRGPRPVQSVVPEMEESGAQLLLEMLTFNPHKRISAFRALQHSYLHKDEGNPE
T1 sequence (P30281 whole entry partner): as the sequence (P30281 whole entry partner) above

| IC50 (CDK4/cyclin D3; [1]) | IC50 (CDK6/cyclin D3; [2]) | IC50 (CDK4/cyclin D3; [3]) | IC50 (CDK6/cyclin D3; [3]) | Compound |
| --- | --- | --- | --- | --- |
| 480 nM | 1970 nM |  |  | CC(C)n1c(C#Cc2nc(N[C@@H]3CCOC[C@H]3C)ncc2Cl)cnc1C(C)(C)O [Example 86, 2-(5-((5-chloro-2-(((3 S,4R)-3-methyltetrahydro-2H-pyran-4-yl)amino)pyrimidin-4-yl)ethynyl)-1-isopropyl-1H-imidazol-2-yl)propan-2-ol] |
|  |  | 23 nM | 253 nM | CC(C)n1c(C#Cc2nc(N[C@@H]3CCOC[C@H]3O)ncc2Cl)cnc1C1(O)CCCC1 [Example 90, (3 S,4R)-4-((5-chloro-4-((2-(1-hydroxycyclopentyl)-1-isopropyl-1H-imidazol-5-yl)ethynyl)pyrimidin-2-yl)amino)tetrahydro-2H-pyran-3-ol] |
|  | 51.1 nM | 12.6 nM |  | CC(C)n1c(C#Cc2nc(N[C@@H]3CCOC[C@H]3O)ncc2Br)cnc1C(C)(C)O [Example 88, (3S,4R)-4-((5-bromo-4-((2-(2-hydroxypropan-2-yl)-1-isopropyl-1H-imidazol-5-yl)ethynyl)pyrimidin-2-yl)amino)tetrahydro-2H-pyran-3-ol] |
|  |  | 23.5 nM | 222 nM | CN(C)c1c(C#Cc2nc(N[C@@H]3CCOC[C@H]3O)ncc2Cl)cnn1C [Example 130, (3 S,4R)-4-((5-chloro-4-((5-(dimethylamino)-1-methyl-1H-pyrazol-4-yl)ethynyl)pyrimidin-2-yl)amino)tetrahydro-2H-pyran-3-ol] |
|  |  | 5.7 nM | 87.8 nM | CC(C)n1c(C#Cc2nc(Nc3ccc(N4CC5(CN(CC(F)F)C5)C4)cn3)ncc2Cl)cnc1CN1CCC[C@H](O)C1 [Example 116, (S)-1-((5-((5-chloro-2-((5-(6-(2,2-difluoroethyl)-2,6-diazaspiro[3.3]heptan-2-yl)pyridin-2-yl)amino)pyrimidin-4-yl)ethynyl)-1-isopropyl-1H-imidazol-2-yl)methyl)piperidin-3-ol] |
|  |  | 2.07 nM | 7.84 nM | CCN1CCN(Cc2ccc(Nc3ncc(Cl)c(C#Cc4cnc(C(C)O)n4C(C)C)n3)nc2)CC1 (stereo not shown) [Example 122, 1-(5-((5-chloro-2-((5-((4-ethylpiperazin-1-yl)methyl)pyridin-2-yl)amino)pyrimidin-4-yl)ethynyl)-1-isopropyl-1H-imidazol-2-yl)ethan-1-ol] |
|  |  | 1.48 nM | 21 nM | CC(C)n1c(C#Cc2nc(N[C@@H]3CCN(S(C)(=O)=O)C[C@H]3O)ncc2Cl)cnc1CN1CCC[C@H](O)C1 [Example 129, (3R,4R)-4-((5-chloro-4-((2-(((S)-3-hydroxypiperidin-1-yl)methyl)-1-isopropyl-1H-imidazol-5-yl)ethynyl)pyrimidin-2-yl)amino)-1-(methanesulfonyl)piperidin-3-ol] |
| 1.17 nM | 5.88 nM |  |  | CCN1CCN(C(=O)c2ccc(Nc3ncc(Cl)c(C#Cc4cnc(C(C)(C)O)n4C(C)C)n3)nc2)CC1 [Example 67, (6-((5-chloro-4-((2-(2-hydroxypropan-2-yl)-1-isopropyl-1H-imidazol-5-yl)ethynyl)pyrimidin-2-yl)amino)pyridin-3-yl)(4-ethylpiperazin-1-yl)methanone] |
| 1.03 nM | 1.9 nM |  |  | CC(C)n1c(C#Cc2nc(Nc3ccc(N4CCN(C)CC4)cn3)ncc2Cl)cnc1C(C)(C)O [Example 66, 2-(5-((5-chloro-2-((5-(4-methylpiperazin-1-yl)pyridin-2-yl)amino)pyrimidin-4-yl)ethynyl)-1-isopropyl-1H-imidazol-2-yl)propan-2-ol] |
|  |  | 172 nM | 2120 nM | CC(C)n1c(C#Cc2nc(N[C@@H]3CCOC[C@H]3O)ncc2Cl)cnc1CN1CC(C)(O)C1 [Example 38, 1-((5-((5-chloro-2-(((3 S,4R)-3-hydroxytetrahydro-2H-pyran-4-yl)amino)pyrimidin-4-yl)ethynyl)-1-isopropyl-1H-imidazol-2-yl)methyl)-3-methylazetidin-3-ol] |
|  |  | 21.7 nM | 135 nM | CC(C)n1c(C#Cc2cc(N[C@@H]3CCOC[C@H]3O)ncc2Cl)cnc1C(C)(C)O [Example 118, (3 S,4R)-4-((5-chloro-4-((2-(2-hydroxypropan-2-yl)-1-isopropyl-1H-imidazol-5-yl)ethynyl)pyridin-2-yl)amino)tetrahydro-2H-pyran-3-ol] |
|  |  | 786 nM | 4770 nM | CC(C)n1c(C#Cc2nc(N[C@@H]3CCOC[C@H]3C#N)ncc2Cl)cnc1C(C)(C)O [Example 101, (3R,4R)-4-((5-chloro-4-((2-(2-hydroxypropan-2-yl)-1-isopropyl-1H-imidazol-5-yl)ethynyl)pyrimidin-2-yl)amino)tetrahydro-2H-pyran-3-carbonitrile] |
|  |  | 5.25 nM | 51.9 nM | CCN1CC2(C1)CN(c1ccc(Nc3ncc(Cl)c(C#Cc4cnc(CN5CCC[C@H](O)C5)n4C(C)C)n3)nc1)C2 [Example 108, (S)-1-((5-((5-chloro-2-((5-(6-ethyl-2,6-diazaspiro[3.3]heptan-2-yl)pyridin-2-yl)amino)pyrimidin-4-yl)ethynyl)-1-isopropyl-1H-imidazol-2-yl)methyl)piperidin-3-ol] |
|  |  | 17.2 nM | 179 nM | Cc1ncc(C#Cc2nc(N[C@@H]3CCOC[C@H]3O)ncc2Cl)n1C(C)C [Example 79, (3 S,4R)-4-((5-chloro-4-((1-isopropyl-2-methyl-1H-imidazol-5-yl)ethynyl)pyrimidin-2-yl)amino)tetrahydro-2H-pyran-3-ol] |
| 119 nM | 1200 nM |  |  | CC(C)c1nn(CC(C)(C)O)cc1C#Cc1nc(N[C@@H]2CCOC[C@H]2O)ncc1Cl [Example 65, (3 S,4R)-4-((5-chloro-4-((1-(2-hydroxy-2-methylpropyl)-3-isopropyl-1H-pyrazol-4-yl)ethynyl)pyrimidin-2-yl)amino)tetrahydro-2H-pyran-3-ol] |
|  |  | 3.25 nM | 29.5 nM | CC(C)c1c(C#Cc2nc(Nc3ccc(N4CC5(CN(CCF)C5)C4)cn3)ncc2F)cnn1C [Example 82, 5-Fluoro-N-(5-(6-(2-fluoroethyl)-2,6-diazaspiro[3.3]heptan-2-yl)pyridin-2-yl)-4-((5-isopropyl-1-methyl-1H-pyrazol-4-yl)ethynyl)pyrimidin-2-amine] |
|  |  | 7.44 nM | 48.9 nM | CCN1CCN(Cc2ccc(Nc3ncc(Cl)c(C#Cc4cnc(C(C)(C)O)n4C(C)C)n3)nc2F)CC1 [Example 84, 2-(5-((5-chloro-2-((5-((4-ethylpiperazin-1-yl)methyl)-6-fluoropyridin-2-yl)amino)pyrimidin-4-yl)ethynyl)-1-isopropyl-1H-imidazol-2-yl)propan-2-ol] |
| 9.64 nM | 38.3 nM |  |  | CC(C)c1c(C#Cc2nc(Nc3ccc(C4CCN(C)CC4)cn3)ncc2F)cnn1C [Example 59, 5-fluoro-4-((5-isopropyl-1-methyl-1H-pyrazol-4-yl)ethynyl)-N-(5-(1-methylpiperidin-4-yl)pyridin-2-yl)pyrimidin-2-amine] |
|  |  | 26.4 nM | 413 nM | CC(C)n1c(C#Cc2nc(N[C@@H]3CCOC[C@H]3O)ncc2Cl)cnc1CN1CCC[C@H](F)C1 [Example 105, (3S,4R)-4-((5-chloro-4-((2-(((S)-3-fluoropiperidin-1-yl)methyl)-1-isopropyl-1H-imidazol-5-yl)ethynyl)pyrimidin-2-yl)amino)tetrahydro-2H-pyran-3-ol] |
|  |  | 2860 nM |  | CCN1CC2(C1)CN(c1ccc(Nc3ncc(F)c(C#Cc4cnn(C)c4C(C)(C)O)n3)nc1)C2 [Example 83, 2-(4-((2-((5-(6-ethyl-2,6-diazaspiro[3.3]heptan-2-yl)pyridin-2-yl)amino)-5-fluoropyrimidin-4-yl)ethynyl)-1-methyl-1H-pyrazol-5-yl)propan-2-ol] |
|  |  | 3290 nM |  | CC(C)n1c(C#Cc2nc(N[C@@H]3CCC[C@@H](C(=O)N(C)C)C3)ncc2Cl)cnc1C(C)(C)O [Example 96, (1R,3R)-3-((5-chloro-4-((2-(2-hydroxypropan-2-yl)-1-isopropyl-1H-imidazol-5-yl)ethynyl)pyrimidin-2-yl)amino)-N,N-dimethylcyclohexane-1-carboxamide] |
|  |  | 1040 nM |  | CC(C)n1c(C#Cc2nc(N[C@@H]3CCOC[C@H]3O)ncc2F)cnc1CN1CCC[C@H](O)C1 [Example 102, (S)-1-((5-((5-fluoro-2-(((3 S,4R)-3-hydroxytetrahydro-2H-pyran-4-yl)amino)pyrimidin-4-yl)ethynyl)-1-isopropyl-1H-imidazol-2-yl)methyl)piperidin-3-ol] |

| Compound | IC50 (CDK4/cyclin D3; [1]) | IC50 (CDK6/cyclin D3; [2]) | IC50 (CDK4/cyclin D3; [3]) | IC50 (CDK6/cyclin D3; [3]) |
| --- | --- | --- | --- | --- |
| (3S,4R)-4-((5-chloro-4-((1-(1, 1-difluoropropan-2-yl)-2-(2-hydroxypropan-2-yl)-1H-imidazol-5-yl)ethynyl)pyrimidin-2-yl)amino)tetrahydro-2H-pyran-3-ol [Example 133] |  |  | 260 nM | 1140 nM |
